Measurements reported in patent publication US9057727B2, “Screening methods using G-protein coupled receptors and related compositions” (The General Hospital Corporation, priority 2007, dated 2015).
Entries after “also recorded” stand apart in the source; their conditions may differ.

Legend:
[1] = Serum and urinary calcium and phosphate in TPTX rats; format: in vivo; conditions: single i.v. 1.25 nmol/kg
Protocol: Five-week-old male Crl:CD(SD) rats were obtained from Charles River Laboratories Japan, Inc. (Kanagawa, Japan) and acclimated for 1 week under standard laboratory conditions at 20-26° C. and 35-75% humidity. The rats received free access to tap water and standard rodent chow (CE-2) containing 1.1% calcium, 1.0% phosphate and 250 IU/100 g of vitamin D3 (Clea Japan, Inc., Shizuoka, Japan).
Thyroparathyroidectomy (TPTX) was performed on six-week-old rats. TPTX rats were selected for use based on serum ionized calcium (iCa) levels (<1.0 mM) in samples taken from tail vein bleeding at 24 hours or […] after the operation using the electrode method. The TPTX rats were divided into six groups of five animals based on iCa levels at 48 hours after the operation. TPTX-vehicle group intravenously received the vehicle alone (10 mM acetic acid solution) at a dose of 1 ml/kg body weight administered to the tail vein.
Blood was obtained from the tail vein for detecting iCa at 1, 2, 4, 6, and 24 hours after each injection. Ionized calcium levels were determined by the electrode method using an autoanalyzer (M-634, Chiba Corning Diagnostics Co. Ltd., Tokyo, Japan).
We also studied the effects of the M-PTH(1-14)/PTHrP(15-36) hybrid peptide (SP-PTH) on serum and urinary calcium and phosphate.

[2] = biological target: T1, human PTHR, G protein-uncoupled conformation (R^0) (Homo sapiens, UniProt Q03431); assay: Competition binding to R0 conformation of hPTHR (COS-7 membranes, GTPγS, 125I-PTH(1-34) tracer); conditions: Table 5; fold weaker affinity for R0 than RG
T1 construct: expressed in transfected cells; host or cells: COS-7, transient (Fugene-6)
T1 sequence (Q03431 27-593): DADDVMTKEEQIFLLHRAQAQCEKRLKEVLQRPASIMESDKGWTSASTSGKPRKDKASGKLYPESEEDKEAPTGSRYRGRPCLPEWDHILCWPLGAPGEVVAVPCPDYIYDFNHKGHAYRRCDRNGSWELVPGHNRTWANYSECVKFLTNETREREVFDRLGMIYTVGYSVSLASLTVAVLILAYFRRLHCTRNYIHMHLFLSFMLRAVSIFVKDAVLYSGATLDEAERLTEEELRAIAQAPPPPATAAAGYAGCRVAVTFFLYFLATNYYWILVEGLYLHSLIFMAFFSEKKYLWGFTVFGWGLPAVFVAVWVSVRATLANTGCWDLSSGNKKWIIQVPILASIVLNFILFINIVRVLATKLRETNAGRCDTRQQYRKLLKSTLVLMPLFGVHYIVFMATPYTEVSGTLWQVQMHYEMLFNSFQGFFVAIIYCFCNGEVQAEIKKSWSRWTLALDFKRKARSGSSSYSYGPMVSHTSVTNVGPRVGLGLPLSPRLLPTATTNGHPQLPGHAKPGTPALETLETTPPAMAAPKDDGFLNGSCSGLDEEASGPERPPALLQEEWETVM
How it was run: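 Membranes from hPTHR-transfected COS-7 cells (20-100 μg/mL protein) incubated 90 min with radioligand (~150,000 cpm/ml) and unlabeled ligands, then filtered. Specific binding expressed as % of binding without competitor.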

NaPi-IIc = NaPi-IIc immunostaining in renal PT cells of injected mice; format: in vivo; conditions: interval 4 to 6 h
Description: (§1) To impair PLC signaling, we replaced alanine at position 1 of M-PTH(1-28) with tryptophan, in accordance with findings of Bisello and colleagues (J Biol Chem 277:38524-30, 2002) showing that such bulky substitutions at this position selectively impair PLC signaling.

[3] = Bone turnover markers (PINP, osteocalcin, CTX) in mice, daily treatment; format: in vivo; conditions: 5 nmol/kg i.v. daily, days 6 and 13
Protocol: FIGS. 30A-30F are graphs showing the effects of PTH analogs on plasma bone markers in mice. Mice (C57BL/6, males, 3 months) were intravenously injected daily with either vehicle, rPTH(1-34) (SEQ ID NO:130), M-PTH(1-34) (SEQ ID NO:12), or (EALK)-PTHrP(1-30) (SEQ ID NO:90) (5 nmol/kg; n=7 group) for 14 days. Markers of bone turnover (PINP, CTX and osteocalcin) were assessed by ELISA in blood at day 6 (FIGS. 30A, 30C, and 30E, respectively) and 13 (FIGS. 30B, 30D, and 30F, respectively).
A second set of experiments was performed in which mice received 5 nmol/kg intravenous daily treatment with rPTH(1-34), M-PTH(1-34), or EALK-PTHrP(1-30) for 14 days. Blood samples were taken at days 6 and 13, and markers of bone turnover (PINP, osteocalcin and CTX) were assessed by ELISA.

hPTHR [4] = biological target: T2, hPTHR (Homo sapiens, UniProt Q03431); assay: Delayed cAMP response after ligand wash-out in HKRK-B7 cells; format: cell-based; parameters: expressed in transfected cells
T2 sequence (Q03431 27-593): T1 sequence (Q03431 27-593)
Protocol: The cells were pre-treated for 10 minutes with either buffer alone (basal) or buffer containing ligand (100 nM); at t=0, the cells were washed, incubated in buffer for the times indicated (wash-out phase), treated with 3-isobutyl-1-methylxanthine (IBMX) for five minutes, and then assessed for intracellular cAMP. […] Data are means (±s.e.m.) of three experiments, each performed in duplicate. […] Analogs were similarly assessed in HKRK-B64 cells (90,000 hPTHRs/cell) at a single time-point, 60 minutes after ligand wash-out (FIG. 5B). For each peptide, the data are expressed as a percentile of the maximum cAMP responses (indicated in side panel) produced in cells treated concomitantly with that ligand and IBMX for 10 minutes and omitting the wash-out phase. […] Data are means (±s.e.m) of four experiments, each performed in triplicate.
Cells were thus treated with a ligand for ten minutes, washed to remove unbound ligand. At various times after washing, IBMX was applied for five minutes, and the resulting intracellular cAMP was measured. […]
Following treatment of cells with a ligand, the intracellular cAMP levels were measured by radioimmuno assay, as described (Shimizu et al., J. Biol. Chem. 276:49003-49012 (2001)). The capacities of ligands to produce a delayed cAMP response in cells after a brief exposure to the ligand was assessed as follows. […]

NaPi-IIa = NaPi-IIa staining in renal PT cells of injected mice; conditions: mouse, in vivo
Description: To help elucidate further the signaling mechanisms by which PTH ligands regulate renal phosphate transport, we developed a derivative of M-PTH(1-28) that is defective for PLC/PKC signaling, yet retains potent cAMP/PKA signaling activity. Such a peptide allows for study of the relative roles of the PKA and PKC signaling pathways in modulating the function and surface expression of the Pi transporters NaPi-IIa and NaPi-IIc in proximal tubule (PT) cells. The analog M-PTH(1-28) (M=Ala^1,Aib^3,Gln^10, Har^11,Trp^14,Arg^19), a potent agonist for cAMP and IP3 signaling pathways, induces, when injected into mice, prolonged hypophosphatemic and hypercalcemic effects.
as §1

hPTHR [5] = biological target: T2, hPTHR; assay: Delayed cAMP response after ligand wash-out in HKRK-B64 cells; format: cell-based; parameters: expressed in transfected cells; conditions: HKRK-B64, 60 minutes after wash-out; read-out: cAMP response after wash-out, % of maximum response
Protocol: The cells were pre-treated for 10 minutes with either buffer alone (basal) or buffer containing ligand (100 nM); at t=0, the cells were washed, incubated in buffer for the times indicated (wash-out phase), treated with 3-isobutyl-1-methylxanthine (IBMX) for five minutes, and then assessed for intracellular cAMP. […] The cAMP level in cells treated with IBMX in the absence of ligand was 2.0±0.3 pmole/well. Data are means (±s.e.m.) of three experiments, each performed in duplicate. […] Analogs were similarly assessed in HKRK-B64 cells (90,000 hPTHRs/cell) at a single time-point, 60 minutes after ligand wash-out (FIG. 5B). For each peptide, the data are expressed as a percentile of the maximum cAMP responses (indicated in side panel) produced in cells treated concomitantly with that ligand and IBMX for 10 minutes and omitting the wash-out phase. […] Data are means (±s.e.m) of four experiments, each performed in triplicate.
The capacity of the ligands to produce sustained (or delayed) cAMP signaling responses was further examined in HKRK-B64 cells, which express the hPTHR at a more physiological level than do HKRK-B7 cells (90,000 per cell vs. 950,000/cell).
The capacities of ligands to produce a delayed cAMP response in cells after a brief exposure to the ligand was assessed as follows. The cells in 24-well plates were rinsed in binding buffer (50 mM Tris-HCl, pH 7.7, 100 mM NaCl, 5 mM KCl, 2 mM CaCl2, 5% heat-inactivated horse serum, 0.5% heat-inactivated fetal bovine serum) and then incubated in binding buffer with or without a peptide ligand (1×10^−7 or 3×10^−7 M) for 10 minutes at room temperature; the buffer was then removed, the cells were washed three times with binding buffer, incubated further in binding buffer for varying times (1 to 120 minutes); the buffer was then replaced by binding buffer containing IBMX (2 mM), and after an additional five minute incubation, the intracellular cAMP was quantified.

[6] = Bone structural parameters after two-week daily treatment in mice (Piximus, microCT); format: in vivo
Protocol: FIG. 31 is a set of images showing the effects of two-week daily treatment of R^0 and RG ligands on trabecular and cortical bone structure in mice. Mice (C57BL/6, males, 3 months) were treated (i.v.) with either vehicle, rPTH(1-34) (SEQ ID NO:130), M-PTH(1-34) (SEQ ID NO:12), or E^18,A^22,L^25,K^26 (EALK)PTHrP(1-30) (SEQ ID NO:90) (5 nmol/kg; n=7 group), daily for 14 days, and femurs were analyzed by μCT.
As described above, mice were treated intravenously) with either vehicle, rPTH(1-34), M-PTH(1-34), or EALK-PTHrP(1-30) daily for 14 days.

[7] = system: opossum kidney (OK) cell line; assay: Phosphate uptake inhibition in opossum kidney cells; format: cell-based; conditions: 10 minute exposure, 1×10^−7 M
Protocol: Data are means (±s.e.m.) of two experiments, each performed in duplicate.
Inhibition of phosphate uptake was assessed using the opossum kidney (OK) cell line, which are derived from the renal proximal tubule.
Cells were treated for 10 minutes at 37° C. with media (vehicle) or media containing a peptide ligand (1×10^−7 M); then (t=0), the cells were then rinsed three times with media and incubated in alone at 37° C. for varying times. At each time point, ^32PO4 was then added to the media, and after five minutes of incubation, the cells were washed, lysed, and the lysate was counted for ^32P beta radioactivity by liquid scintillation counting.

[8] = Plasma phosphate in mice (20 nmol/kg); format: in vivo
Description: as §1

hPTHR [9] = biological target: T2, hPTHR; assay: Radioligand dissociation from PTHR in HKRK-B7 membranes with or without GTPγS; format: binding; parameters: expressed in transfected cells
Protocol: At each time point, aliquots were removed from the reaction tubes and immediately subjected to rapid vacuum filtration using a 96-well vacuum filtration plate to separate bound from free radioactivity. Non-specific binding was determined in tubes containing the unlabeled ligand (5×10^−7 M) during both the pre-incubation and dissociation phases. The specifically bound radioactivity (SB) at each time point was then expressed as the percent of the specific binding observed at t=0. […] Curves were fit to the data using either a two-phase (FIGS. 1A and 1B) or single phase (FIG. 1C) exponential decay equation. […]
Reactions contained a total membrane protein concentration of 20 to 100 μg/mL, and a total radioactivity concentration of approximately 150,000 cpm/ml. […] At the end of the reaction, bound and free radioligand were separated by vacuum filtration using a 96-well vacuum filter plate and vacuum filter apparatus (Multi-Screen system with Durapore HV, 0.65 μM filters; Millipore Corp., Milford, Mass.); the air-dried filters were then detached from the plate and counted for gamma radioactivity using a gamma counter.
These studies were performed as bulk reactions in 15 mL round-bottom polystyrene snap-cap tubes (Falcon) (total reaction volume=5.0 ml). […] The specifically bound radioactivity at each time point was calculated as a percent of the radioactivity specifically bound at t=0.

rat PTHR = biological target: T3, rat PTHR (Rattus norvegicus, UniProt P25961); assay: GTPγS inhibition of equilibrium radioligand binding, ROS17/2.8 membranes; parameters: the rat osteoblastic cell line ROS17/2.8, which endogenously expresses the rat PTHR; endogenous in cells; host or cells: ROS 17/2.8 rat osteosarcoma cells (membranes or intact cells)
T3 sequence (P25961 27-591): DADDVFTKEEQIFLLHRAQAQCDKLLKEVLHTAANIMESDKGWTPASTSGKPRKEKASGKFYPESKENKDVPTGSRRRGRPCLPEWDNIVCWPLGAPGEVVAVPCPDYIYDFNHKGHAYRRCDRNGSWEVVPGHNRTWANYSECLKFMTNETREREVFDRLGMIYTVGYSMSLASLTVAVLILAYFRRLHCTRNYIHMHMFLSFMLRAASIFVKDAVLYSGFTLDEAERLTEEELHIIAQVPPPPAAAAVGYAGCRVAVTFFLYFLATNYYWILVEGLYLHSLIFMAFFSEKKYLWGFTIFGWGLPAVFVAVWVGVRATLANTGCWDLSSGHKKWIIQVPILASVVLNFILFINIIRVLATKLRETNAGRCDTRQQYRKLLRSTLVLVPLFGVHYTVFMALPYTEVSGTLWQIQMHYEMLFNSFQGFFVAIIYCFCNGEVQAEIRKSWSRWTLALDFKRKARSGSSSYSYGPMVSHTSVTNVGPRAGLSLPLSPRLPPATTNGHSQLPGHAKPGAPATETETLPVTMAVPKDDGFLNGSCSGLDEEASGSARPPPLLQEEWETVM
Protocol: FIGS. 2A and 2B are graphs showing GTPγS sensitivity of PTH and PTHrP analog binding to the human and rat PTHRs. Radioligand analog binding to the PTHR in membranes prepared from HKRK-B7 (FIG. 2A) or ROS 17/2.8 cells (FIG. 2B) was assessed under near-equilibrium conditions in the absence or presence of varying concentrations of GTPγS. Data are expressed as a percent of radioactivity specifically bound (SB) in the absence of GTPγS. […] The radioligands studied were ^125I-[Nle^8,21,Tyr^34]PTH(1-34)NH2 (SEQ ID NO:123); [Tyr^36]PTHrP(1-36)NH2 (SEQ ID NO:124); [Ile^5,Tyr^36]PTHrP(1-36)NH2 (SEQ ID NO:125) and [Aib^1,3,Nle^8,Gln^10,Har^11,Ala^12,Trp^14,Tyr^15]hPTH(1-15)NH2 (SEQ ID NO:126).
The effects of GTPγS on the binding of these radioligands to the PTHR under approximate-equilibrium conditions was assessed. by incubating with cell membranes for 90 minutes in the absence or presence of GTPγS at varying concentrations. […]
Binding reactions performed with ^125I-[Aib^1,3,M]PTH(1-15) radioligand were assembled and incubated in the wells of the 96-well, Multi-Screen vacuum filtration plates. […] For both radioligands, the non-specific binding was determined in reactions containing a saturating concentration of the unlabeled analog of the radioligand. The specifically bound radioactivity was calculated as a percent of the radioactivity specifically bound in the absence of a competing ligand or GTPγS.

[10] = Piximus, mice, 5 nmol/kg i.v. daily 14 days

Compound: CC[C@H](C)[C@H](NC(=O)[C@H](CCC(=O)O)NC(=O)[C@H](CO)NC(=O)[C@@H](NC(=O)[C@H](C)N)C(C)C)C(=O)N[C@@H](CCC(N)=O)C(=O)N[C@@H](CC(C)C)C(=O)N[C@@H](CCSC)C(=O)N[C@@H](Cc1c[nH]cn1)C(=O)N[C@@H](CC(N)=O)C(=O)N[C@@H](CC(C)C)C(=O)NCC(=O)N[C@@H](CCCCN)C(=O)N[C@@H](Cc1c[nH]cn1)C(=O)N[C@@H](CC(C)C)C(=O)N[C@@H](C)C(=O)N[C@@H](CO)C(=O)N[C@H](C(=O)N[C@@H](CCC(=O)O)C(=O)N[C@@H](CCCNC(=N)N)C(=O)N[C@@H](CCSC)C(=O)N[C@@H](CCC(N)=O)C(=O)N[C@@H](Cc1c[nH]c2ccccc12)C(=O)N[C@@H](CC(C)C)C(=O)N[C@@H](CCCNC(=N)N)C(=O)N[C@@H](CCCCN)C(=O)N[C@@H](CCCCN)C(=O)N[C@@H](CC(C)C)C(=O)N[C@@H](CCC(N)=O)C(=O)N[C@@H](CC(=O)O)C(=O)N[C@H](C(=O)N[C@@H](Cc1c[nH]cn1)C(=O)N[C@@H](CC(N)=O)C(=O)N[C@@H](Cc1ccccc1)C(N)=O)C(C)C)C(C)C [PTH(1-34), reference compound]
- serum calcium (sCa) and serum phosphorus (sPi), in words [1]: transiently increased serum calcium (sCa) and decreased serum phosphorus (sPi) levels at 1 hr, but not to the normal range
- urinary calcium 0-6 hours, in words [1]: did not change
- urinary phosphate 0-6 hours, in words [1]: did not change
- R0:RG [2]: five
- NaPi-IIc immunostaining, in words (NaPi-IIc): unchanged
- effect on bone turnover markers, in words [3]: only minor effects on bone markers
- time course of cAMP responses after wash-out compared with other ligands, in words (hPTHR [4]): not different from those induced by PTHrP(1-36); also recorded: nearly identical to those produced by Ile^5-PTHrP(1-36)
- apical and cytoplasmic NaPi-IIa staining, in words (NaPi-IIa): returned to vehicle control levels at 6 h
- Emax (hPTHR [5]): 47%
- Lumbar Spine BMD [6, 10]: 0.0464 ± 0.0002 g/cm^2
- Total Femur BMD [6, 10]: 0.0615 ± 0.0003 g/cm^2
- Conn-Dens. ([6]; microCT distal femur): 116 ± 8 1/mm^3
- Cort Th. ([6]; microCT distal femur): 229 ± 11 μm
- Tb · N ([6]; microCT distal femur): 4.02 ± 0.14 1/mm
- Tb · Th ([6]; microCT distal femur): 57.5 ± 1.4 μm
- TbSp ([6]; microCT distal femur): 246 ± 10 μm
- TrabecularBV/TV ([6]; microCT distal femur): 17.4 ± 1.2%
- BA ([6]; microCT mid femur): 0.839 ± 0.032 mm^2
- BA/TA ([6]; microCT mid femur): 38.7 ± 0.7%
- Cort Th. ([6]; microCT mid femur): 172 ± 5 μm
- MA ([6]; microCT mid femur): 1.33 ± 0.02 mm^2
- TA ([6]; microCT mid femur): 2.17 ± 0.05 mm^2
- duration of phosphate uptake inhibition, in words [7]: much shorter duration of phosphate uptake inhibition
- time of maximal suppression of plasma phosphate [8]: 2 h
- time of recovery of plasma phosphate to vehicle control levels [8]: 4 h

Compound: ^125I[Tyr^36]PTHrP(1-36)NH2 [^125I-PTHrP(1-36)]
- fraction of complexes stable, decaying slowly (hPTHR [9]; absence of GTPγS): 68%
- fraction of complexes unstable, decaying rapidly (hPTHR [9]; with GTPγS): 72%
- sensitivity of binding to GTPγS, in words (rat PTHR): strongly inhibited
